Experimental data from patent EP1981504B1, “THIADIAZOLE DERIVATIVES FOR THE TREATMENT OF NEURO DEGENERATIVE DISEASES” (NV reMYND, priority 2006, dated 2007).
In brackets after ≈: the same amount, converted by molar mass.

System: M17-SYNwt cells
Assay: α-synuclein cytotoxicity assay (LDH leakage from paraquat-treated α-synuclein over-expressing neuroblastoma cells)
Assay type: cell-based, human
Details: paraquat 32 mM, 40 hours, LDH release; for EC50: Homo sapiens, Neuroblastoma cell; for EC50 / EC50 (µg/mL): 10 point curves in duplicate; for %I: percent inhibition of synuclein cytotoxicity at most effective concentration of test compound, relative to untreated paraquat cells
Protocol: Subsequently, LDH activity was determined using Promega Cytotox 96 NonRadioactive cytotoxicity assay, (Cat. G1780) according the supplier's instructions.
This corresponds to the following equation: (LDHreleaseoftreatedparaquatcellsatnon-effectiveconcentrationoftestcmpd)−(LDHreleaseoftreatedparaquatcellsatmosteffectiveconcentrationoftestcmpd)/(LDHreleaseofuntreatedparaquatcells)−(LDHreleasecontrolcells)*100% [formula]
1,2,4-thiadazole compounds made according to the methods described herein were screened for activity using the α-synuclein cytotoxicity assay as described above. Dose responses were carried out on all compounds found to be active (10 point curves in duplicate).

Row | Compound | EC50 [mg/L] | %I [%] | EC50 (µg/mL)
1 | CCCCc1ccc(C(=O)N2CCN(c3nc(Cc4ccc(C)cc4)ns3)CC2C)cc1 (centres unmarked) [Compound 117, 1-(4-butylbenzoyl)-4-[3-(4-methylbenzyl)-1,2,4-thiadiazol-5-yl]-2-methylpiperazine] | 0.0841 (≈ 0.187 µM) | 82 | 
2 | CC1CN(c2nc(Cc3ccccc3)ns2)CCN1C(=O)c1cccc(F)c1 (centres unmarked) [Compound 150, 1-(3-fluorobenzoyl)-4-[3-benzyl-1,2,4-thiadiazol-5-yl]-2-methylpiperazine] | 1.14 (≈ 2.88 µM) | 99 | 
3 | O=C(NCCN1CCN(c2nc(Cc3ccc(F)cc3)ns2)CC1)c1ccc(F)cc1 [Compound 102, 4-fluoro-N-{2-[4-[3-(4-fluorobenzyl)-1,2,4-thiadiazol-5-yl]piperazin-1-yl]ethyl}benzamide] | 1.99 (≈ 4.49 µM) | 80 | 
4 | 1-(3-methylbenzoyl)-4-[3-(4-methylbenzyl)-1,2,4-thiadiazol-5-yl]-2-methylpiperazine [Compound 144] |  | 64 | 0,56 µg/mL
5 | 1-(phenylprop-2-ensulfonyl)-4-[3-(4-methylbenzyl)-1,2,4-thiadiazol-5-yl]piperazine [Compound 80] |  | 70 | 0,056880 µg/mL
6 | COc1ccc(S(=O)(=O)N2CCN(c3nc(Cc4ccc(C)cc4)ns3)CC2)cc1 [Compound 68, 1-[4-methoxyphenylsulfonyl]-4-[3-(4-methylbenzyl)-1,2,4-thiadiazol-5-yl]piperazine] | 0.000255 (≈ 0.000574 µM) | 53 | 
7 | CC1CN(c2nc(Cc3ccc(F)cc3)ns2)CCN1C(=O)CCc1ccccc1 (centres unmarked) [Compound 89, 1-(3-phenylpropanoyl)-4-[3-(4-fluorobenzyl)-1,2,4-thiadiazol-5-yl]-2-methylpiperazine] | 0.6 (≈ 1.41 µM) | 86 | 
8 | O=S(=O)(c1ccc(F)cc1)N1CCN(c2nc(Cc3ccc(Cl)cc3)ns2)CC1 [Compound 33, 1-[4-fluorophenylsulfonyl]-4-[3-(4-chlorobenzyl)-1,2,4-thiadiazol-5-yl]piperazine] | 0.00282 (≈ 0.00622 µM) | 53 | 
9 | 1-(phenylprop-2-ensulfonyl)-4-[3-(4-fluorobenzyl)-1,2,4-thiadiazol-5-yl]piperazine [Compound 78] |  | 75 | 0,13 µg/mL
10 | Cc1ccc(Cc2nsc(N3CCN(C(=O)c4ccc(C(C)(C)C)cc4)CC3)n2)cc1 [Compound 183, 1-(4-tert-butylbenzoyl)-4-[3-(4-methylbenzyl)-1,2,4-thiadiazol-5-yl]piperazine] |  | 52 | 
11 | Clc1ccc(Cc2nsc(N3CCN(C/C=C/c4ccccc4)CC3)n2)cc1 [Compound 92, 1-[3-phenylprop-2-enyl]-4-[3-(4-chlorobenzyl)-1,2,4-thiadiazol-5-yl]piperazine] | 0.75 (≈ 1.82 µM) | 69 | 
12 | CC1CN(c2nc(Cc3ccc(F)cc3)ns2)CCN1C(=O)/C=C/c1ccccc1 (centres unmarked) [Compound 87, 1-[(2E)-3-phenylprop-2-enoyl]-4-B103-2-methylpiperazine] | 2.49 (≈ 5.89 µM) | 94 | 
13 | Fc1ccc(Cc2nsc(N3CCN(C/C=C/c4ccccc4)CC3)n2)cc1 [Compound 93, 1-[3-phenylprop-2-enyl]-4-[3-(4-fluorobenzyl)-1,2,4-thiadiazol-5-yl]piperazine] | 1.99 (≈ 5.04 µM) | 91 | 
14 | CCCCS(=O)(=O)N1CCN(c2nc(Cc3ccc(Cl)cc3)ns2)CC1 [Compound 81, 1-(butylsulfonyl)-4-[3-(4-chlorobenzyl)-1,2,4-thiadiazol-5-yl]piperazine] | 0.35 (≈ 0.843 µM) | 80 | 
15 | CC(C)(C)c1ccc(S(=O)(=O)N2CCN(c3nc(Cc4ccc(F)cc4)ns3)CC2)cc1 [Compound 30, 1-[4-tert-butylphenylsulfonyl]-4-[3-(4-fluorobenzyl)-1,2,4-thiadiazol-5-yl]piperazine] |  | 51 | 
16 | O=C(/C=C/c1ccccc1)N1CCN(c2nc(Cc3ccc(Cl)cc3)ns2)CC1 [Compound 88, 1-[(2E)-3-phenylprop-2-enoyl]-4-[3-(4-chlorobenzyl)-1,2,4-thiadiazol-5-yl]piperazine] |  | 72 | 
17 | Cc1ccc(Cc2nsc(N3CCN(S(=O)(=O)c4cccc(C(F)(F)F)c4)CC3)n2)cc1 [Compound 62, 1-[3-trifluoromethylphenylsulfonyl]-4-[3-(4-methylbenzyl)-1,2,4-thiadiazol-5-yl]piperazine] |  | 45 | 
18 | CCCCCCCCS(=O)(=O)N1CCN(c2nc(Cc3ccc(C)cc3)ns2)CC1 [Compound 82, 1-(octylsulfonyl)-4-[3-(4-methylbenzyl)-1,2,4-thiadiazol-5-yl]piperazine] | 1.58 (≈ 3.51 µM) | 50 | 

Row | Compound | EC50 [mg/L] | %I [%] | EC50 (µg/mL)
19 | CC1CN(c2nc(Cc3ccc(F)cc3)ns2)CCN1C(=O)Cc1ccc(F)cc1 (centres unmarked) [Compound 6, 1-(4-fluorophenylacetyl)-4-[3-(4-fluorobenzyl)-1,2,4-thiadiazol-5-yl]-2-methylpiperazine] |  | 75 | 
20 | O=C(Cc1ccccc1)N1CCN(c2nc(Cc3ccc(F)cc3)ns2)CC1 [Compound 1, 4-phenylacetyl-1-[3-(4-fluorobenzyl)-1,2,4-thiadiazol-5-yl]piperazine] | 0.15 (≈ 0.378 µM) | 75 | 
21 | COc1ccc(S(=O)(=O)N2CCN(c3nc(Cc4ccc(Cl)cc4)ns3)CC2)cc1 [Compound 31, 1-[4-methoxyphenylsulfonyl]-4-[3-(4-chlorobenzyl)-1,2,4-thiadiazol-5-yl]piperazine] | 0.000169 (≈ 0.000363 µM) | 59 | 
22 | Cc1ccc(Cc2nsc(N3CCN(CCNC(=O)Cc4ccc(F)cc4)CC3)n2)cc1 [Compound 109, 2-(4-fluorophenyl)-N-{2-[4-[3-(4-methylbenzyl)-1,2,4-thiadiazol-5-yl]piperazin-1-yl]ethyl}acetamide] | 3.52 (≈ 7.76 µM) | 93 | 
23 | O=S(=O)(c1ccc(O)cc1)N1CCN(c2nc(Cc3ccc(F)cc3)ns2)CC1 [Compound 217, 1-(4-hydroxybenzenesulfonyl)-4-[3-(4-fluoro-benzyl)-1,2,4-thiadiazol-5-yl]piperazine] |  | 77 | 
24 | O=C(NCCN1CCN(c2nc(Cc3ccc(F)cc3)ns2)CC1)NCc1ccccc1 [Compound 110, N-benzyl-N'-{2-[4-[3-(4-fluorobenzyl)-1,2,4-thiadiazol-5-yl]piperazin-1-yl]ethyl}urea] |  | 77 | 
25 | CC1CN(c2nc(Cc3ccc(F)cc3)ns2)CCN1C(=O)Nc1ccc(F)cc1F (centres unmarked) [Compound 23, N-(2,4-difluorophenyl)-4-[3-(4-fluorobenzyl)-1,2,4-thiadiazol-5-yl]-2-methylpiperazine-1-carboxamide] | 0.94 (≈ 2.1 µM) | 66 | 
26 | O=S(=O)(Cc1ccccc1)N1CCN(c2nc(Cc3ccc(Cl)cc3)ns2)CC1 [Compound 76, 1-(benzylsulfonyl)-4-[3-(4-chlorobenzyl)-1,2,4-thiadiazol-5-yl]piperazine] |  | 40 | 
27 | Cc1ccc(Cc2nsc(N3CCN(S(=O)(=O)c4cccc5cccnc45)CC3)n2)cc1 [Compound 70, 1-[quinoline-8-sulfonyl]-4-[3-(4-methylbenzyl)-1,2,4-thiadiazol-5-yl]piperazine] |  | 44 | 
28 | COc1ccc(S(=O)(=O)N2CCN(c3nc(Cc4ccc(C)cc4)ns3)CC2C)cc1 (centres unmarked) [Compound 60, 1-[4-methoxyphenylsulfonyl]-4-[3-(4-methylbenzyl)-1,2,4-thiadiazol-5-yl]-2-methylpiperazine] | 0.0013 (≈ 0.00283 µM) | 93 | 
29 | COc1cccc(Cc2nsc(N3CCN(C(=O)c4ccc(C)cc4)C(C)C3)n2)c1 (centres unmarked) [Compound 124, 1-(4-methylbenzoyl)-4-[3-(3-methoxybenzyl)-1,2,4-thiadiazol-5-yl]-2-methylpiperazine] | 0.14 (≈ 0.331 µM) | 57 | 
30 | Cc1ccccc1NC(=O)N1CCN(c2nc(Cc3ccc(F)cc3)ns2)CC1 [Compound 15, N-(2-methylphenyl)-4-[3-(4-fluorobenzyl)-1,2,4-thiadiazol-5-yl]piperazine-1-carboxamide] | 5.01 (≈ 12.2 µM) | 65 | 
31 | CCc1ccc(C(=O)N2CCN(c3nc(Cc4ccc(C)cc4)ns3)CC2)cc1 [Compound 131, 1-(4-ethylbenzoyl)-4-[3-(4-methylbenzyl)-1,2,4-thiadiazol-5-yl]piperazine] | 0.25 (≈ 0.615 µM) | 91 | 
32 | O=C(NCCN1CCN(c2nc(Cc3ccc(F)cc3)ns2)CC1)c1ccc(Cl)cc1 [Compound 97, 4-chloro-N-{2-[4-[3-(4-fluorobenzyl)-1,2,4-thiadiazol-5-yl]piperazin-1-yl]ethyl}benzamide] | 1.29 (≈ 2.8 µM) | 68 | 
33 | CC1CN(c2nc(Cc3ccc(F)cc3)ns2)CCN1C(=O)c1ccc2c(c1)OCO2 (centres unmarked) [Compound 178, 1-(1,3-benzodioxol-5-ylcarbonyl)-4-[3-(4-fluorobenzyl)-1,2,4-thiadiazol-5-yl]-2-methylpiperazine] |  | 68 | 
34 | O=C(c1ccccc1)N1CCN(c2nc(Cc3ccc(F)cc3)ns2)CC1 [Compound 181, 1-benzoyl-4-[3-(4-fluorobenzyl)-1,2,4-thiadiazol-5-yl]piperazine] |  | 60 | 
35 | N-(3-cyanophenyl)-4-[3-(4-fluorobenzyl)-1,2,4-thiadiazol-5-yl]-2-methylpiperazine-1-carboxamide [Compound 22] |  | 59 | 0,88 µg/mL
